Assay results taken from patent publication US9085599B2, “2′allene-substituted nucleoside derivatives” (priority 2011, dated 2015).
Like-named read-outs stand apart in the source and are kept apart here.

Key:
[1] = tested on: HCV replicon RNA, genotype 1b (strain Con1); experiment: HCV replicon assay qRT-PCR, genotype 1b (SGR 11-7 replicon cell line); assay type: cell-based; conditions: Hepatitis C virus, read-out: 1b EC50
Text: (§1) HCV replicon cell lines (kindly provided by R. Bartenschlager) isolated from colonies as described by Lohman et al. (Lohman et al. (1999) Science 285: 110-113, expressly incorporated by reference in its entirety) and used for all experiments. One of the HCV replicon cell lines (strain Con1, genotype 1b) has the nucleic acid sequence set forth in EMBL Accession No.: AJ242651, the coding sequence of which is from nucleotides 1801 to 8406. Another replicon cell line (strain H77, genotype 1a) was constructed as described by Yi et. al. (Yi et. al. (2004) Journal of Virology 78(15):7904-15). […]
(§2) EC50 values of single agent compounds were determined by HCV RNA detection using quantitative RT-PCR, according to the manufacturer's instructions, with a TAQMAN® One-Step RT-PCR Master Mix Reagents Kit (Cat#AB 4309169, Applied Biosystems) on an ABI Model 7500 thermocycler. EC50 values of combinations are similarly determined by HCV RNA detection using quantitative RT-PCR. The TAQMAN primers to use for detecting and quantifying HCV RNA obtained from Integrated DNA Technologies. HCV RNA is normalized to GAPDH RNA levels in drug-treated cells, which is detected and quantified using the Human GAPDH Endogenous Control Mix (Applied Biosystems, AB 4310884E). […] Chemical agent cytotoxicity is evaluated using an MTS assay according to the manufacturer's directions (Promega). […]

[2] = tested on: HCV replicon RNA, genotype 1a (strain H77); experiment: HCV replicon assay qRT-PCR, genotype 1a (Huh-1a7 replicon cell line); assay type: cell-based; conditions: Hepatitis C virus, read-out: 1a EC50
Text: as §1, §2

Row | SMILES | EC50 ([1]; Genotype-1b replicon, HCV RNA by qRT-PCR normalized to GAPDH RNA) [µM] | EC50 ([2]; Genotype-1a replicon, HCV RNA by qRT-PCR normalized to GAPDH RNA) [µM] | EC50 [1] [µM] | EC50 [2] [µM]
1 | C=C=C[C@@]1(O)C(O)[C@@H](CO)O[C@H]1n1ccc(=O)[nH]c1=O (stereo partly shown) [Example 1] | > 10 | > 10 | – | –
2 | C=C=C[C@@]1(O)C(O)[C@@H](COP(=O)(N[C@@H](C)C(=O)OC)Oc2cccc3ccccc23)O[C@H]1n1ccc(=O)[nH]c1=O (stereo partly shown) [Example 2] | – | – | 1 to 10 | 1 to 10
